Laboratory results from patent US20240252677A1, “ONE-COMPONENT DELIVERY SYSTEM FOR NUCLEIC ACIDS” (The Trustees of the University of Pennsylvania, priority 2021, published 2024).

Experiments:
spleen = assay: In vivo mRNA delivery, IVIS imaging of organs: spleen; set-up: species or system mice; key to Organs with luminescence: spleen: strong: Strong meant the luminescence intensity in that organ was relatively high, compared to other organs; weak: Weak meant the luminescence intensity in that organ was relatively low, compared to other organs; conditions: Table 17; mice, IVIS, 4-6 h after injection; intensity relative to other organs
liver = assay: In vivo mRNA delivery, IVIS imaging of organs: liver; set-up: species or system mice; key to Organs with luminescence: liver: strong: Strong meant the luminescence intensity in that organ was relatively high, compared to other organs; weak: Weak meant the luminescence intensity in that organ was relatively low, compared to other organs; conditions: Table 17; mice, IVIS, 4-6 h after injection; intensity relative to other organs
BALB/c mice = assay: In vivo mRNA delivery in mice with DNPs, whole-body bioluminescence imaging (IVIS)
lung = assay: In vivo mRNA delivery, IVIS imaging of organs: lung; set-up: species or system mice; key to Organs with luminescence: lung: strong: Strong meant the luminescence intensity in that organ was relatively high, compared to other organs; weak: Weak meant the luminescence intensity in that organ was relatively low, compared to other organs; conditions: Table 17; mice, IVIS, 4-6 h after injection; intensity relative to other organs
[1] = Dimensions (size, PDI) of DNPs co-assembled from IAJDs and Luc-mRNA by DLS; assay type: physicochemical
How it was run: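 IAJDs (80 mg/mL ethanol stock) rapidly injected into Luc-mRNA (4.0 mg/mL stock) diluted in 10 mM acetate buffer pH 4.0, then vortexed 5 s. Size and polydispersity of resulting DNPs measured by DLS (633 nm laser, 175° detection) at 23 °C.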

[2] = Stability of DNPs by DLS after storage at 5° C.; assay type: physicochemical; set-up: key to Original size distribution type (DLS curve) / Size distribution type (DLS curve): U: DLS curve showed unimodal size distribution; B: DLS curve showed bimodal size distribution; M: DLS curve showed multimodal size distribution; conditions: for pH Sample: DNPs: IAJD 4.0 mg/mL + Luc-mRNA 0.1 mg/mL, injection in acetate buffer pH 4.00; for PDI / Size (d, nm) / Original size distribution type (DLS curve): IAJD 4.0 mg/mL + Luc-mRNA 0.1 mg/mL; for PDI / Size (d, nm): acetate buffer; for Original size distribution type (DLS curve): before storage, acetate buffer pH 4.00
How it was run: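 DNPs in acetate buffer sized by DLS after storage at 5 °C. Stability ranked Excellent, Good or Not stable according to retention, shrinkage or growth of original size and narrowing or broadening of size distribution.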

[3] = Table 16, DNPs from IAJD 4 mg/mL and Luc-mRNA 0.10 mg/mL by injection in acetate buffer (10 mM, pH 4.0)
[4] = Table 17, DNPs used in vivo, IAJD 4 mg/mL, Luc-mRNA 0.10 mg/mL, acetate pH 4.0
[5] = Table 20, nonsymmetric IAJDs and MC3-Luc-mRNA

| Structure (SMILES) | PDI [1, 3] | Size (d, nm) [1, 3] [nm] | PDI [1, 4] | Size (d, nm) [1, 4] [nm] | pH Sample [2] | Size distribution type (DLS curve) ([2]; after 27 days at 5° C.) | PDI ([2]; after 27 days at 5° C.) | Size (d, nm) ([2]; after 27 days at 5° C.) [nm] | Original size distribution type (DLS curve) [2] | Size distribution type (DLS curve) ([2]; after 19 days at 5° C.) | PDI ([2]; after 19 days at 5° C.) | Size (d, nm) ([2]; after 19 days at 5° C.) [nm] | Size distribution type (DLS curve) ([2]; after 35 days at 5° C.) | PDI ([2]; after 35 days at 5° C.) | Size (d, nm) ([2]; after 35 days at 5° C.) [nm] | Organs with luminescence: spleen (spleen) | Organs with luminescence: liver (liver) | In vivo activity (total flux, p/s) (BALB/c mice; Table 19, nonsymmetric IAJDs) | Organs with luminescence: lung (lung) | In vivo activity (total flux, p/s) (BALB/c mice; [5]) |
| --- | --- | --- | --- | --- | --- | --- | --- | --- | --- | --- | --- | --- | --- | --- | --- | --- | --- | --- | --- | --- |
| CCCCCCCCCCCCCCCOc1cc(COC(=O)CCCN2CCN(C)CC2)cc(OCCCCCCCCCCCC)c1 [IAJD 143, 3-(Dodecyloxy)-5-(pentadecyloxy)benzyl 4-(4-methylpiperazin-1-yl)butanoate] | 0.270 | 169 | 0.270 | 169 | 4.48 | (U) | 0.243 | 166 | (U) |  |  |  |  |  |  | spleen (strong) | liver (strong), | 1.28 × 10^7 p/s | Lung (strong), |  |
| CCCCCCCCCCCCCCCOc1cc(COC(=O)CCCN2CCN(CCO)CC2)cc(OCCCCCCCCCCCC)c1 [IAJD 144, 3-(Dodecyloxy)-5-(pentadecyloxy)benzyl 4-(4-(2-hydroxyethyl)piperazin-1-yl)butanoate] | 0.432 | 236 | 0.432 | 236 | 4.40 | (U) | 0.276 | 216 | (B) |  |  |  |  |  |  | spleen (strong) | liver (weak), | 1.39 × 10^7 p/s | Lung (weak), |  |
| CCCCCCCCCCCCCCCOc1cc(COC(=O)CCCN2CCN(C)CC2)cc(OCCCCCCCCCCCCC)c1 [IAJD 145, 3-(pentadecyloxy)-5-(tridecyloxy)benzyl 4-(4-methylpiperazin-1-yl)butanoate] | 0.306 | 194 | 0.306 | 194 | 4.51 | (U) | 0.330 | 189 | (U) |  |  |  |  |  |  | spleen (strong) | liver (weak), | 9.25 × 10^6 p/s | Lung (strong), |  |
| CCCCCCCCCCCCCCCOc1cc(COC(=O)CCCN2CCN(C)CC2)cc(OCCCCCCCCCCCCCC)c1 [IAJD 147, 3-(Pentadecyloxy)-5-(tetradecyloxy)benzyl 4-(4-methylpiperazin-1-yl)butanoate] | 0.287 | 144 | 0.287 | 144 | 4.50 |  |  |  | (U) | (U) | 0.283 | 145 |  |  |  | spleen (strong) | liver (weak), | 9.24 × 10^6 p/s | Lung (weak), |  |
| CCCCCCCCCCCCCCCCOc1cc(COC(=O)CCCN2CCN(C)CC2)cc(OCCCCCCCCCCCCCCC)c1 [IAJD 149, 3-(Hexadecyloxy)-5-(pentadecyloxy)benzyl 4-(4-methylpiperazin-1-yl)butanoate] | 0.304 | 193 | 0.304 | 193 | 4.50 |  |  |  | (B) | (B) | 0.291 | 193 |  |  |  | spleen (strong) | liver (weak), | 2.26 × 10^7 p/s | Lung (weak), |  |
| CCCCCCCCCCCCCCCCCOc1cc(COC(=O)CCCN2CCN(C)CC2)cc(OCCCCCCCCCCCCCCC)c1 [IAJD 151, 3-(Heptadecyloxy)-5-(pentadecyloxy)benzyl 4-(4-methylpiperazin-1-yl)butanoate] | 0.216 | 287 | 0.216 | 287 | 4.57 |  |  |  | (U) |  |  |  | (U) | 0.240 | 271 | spleen (strong) | liver (weak), | 3.12 × 10^7 p/s | Lung (weak), |  |

Further lines, with some results ahead:

| PDI [1, 3] | Size (d, nm) [1, 3] [nm] | PDI [1, 4] | Size (d, nm) [1, 4] [nm] | pH Sample [2] | Size distribution type (DLS curve) ([2]; after 27 days at 5° C.) | PDI ([2]; after 27 days at 5° C.) | Size (d, nm) ([2]; after 27 days at 5° C.) [nm] | Original size distribution type (DLS curve) [2] | Size distribution type (DLS curve) ([2]; after 19 days at 5° C.) | PDI ([2]; after 19 days at 5° C.) | Size (d, nm) ([2]; after 19 days at 5° C.) [nm] | Size distribution type (DLS curve) ([2]; after 35 days at 5° C.) | PDI ([2]; after 35 days at 5° C.) | Size (d, nm) ([2]; after 35 days at 5° C.) [nm] | Structure (SMILES) | Organs with luminescence: spleen (spleen) | Organs with luminescence: liver (liver) | In vivo activity (total flux, p/s) (BALB/c mice; Table 19, nonsymmetric IAJDs) | Organs with luminescence: lung (lung) | In vivo activity (total flux, p/s) (BALB/c mice; [5]) |
| --- | --- | --- | --- | --- | --- | --- | --- | --- | --- | --- | --- | --- | --- | --- | --- | --- | --- | --- | --- | --- |
| 0.276 | 231 | 0.276 | 231 | 4.40 | (U) | 0.285 | 227 | (U) |  |  |  |  |  |  | CCCCCCCCCCCCCCCOc1cc(COC(=O)CCCN2CCN(CCO)CC2)cc(OCCCCCCCCCCCCC)c1 [IAJD 146, 3-(Pentadecyloxy)-5-(tridecyloxy)benzyl 4-(4-(2-hydroxyethyl)piperazin-1-yl)butanoate] | spleen (strong) | liver (strong), | 4.70 × 10^7 p/s | Lung (strong), |  |
| 0.339 | 363 | 0.339 | 363 | 4.46 |  |  |  | (U) | (B) | 0.374 | 405 |  |  |  | CCCCCCCCCCCCCCCOc1cc(COC(=O)CCCN2CCN(CCO)CC2)cc(OCCCCCCCCCCCCCC)c1 [IAJD 148, 3-(Pentadecyloxy)-5-(tetradecyloxy)benzyl 4-(4-(2-hydroxyethyl)piperazin-1-yl)butanoate] | spleen (strong) | liver (weak), | 6.33 × 10^7 p/s | Lung (weak), |  |
| 0.454 | 285 | 0.454 | 285 | 4.51 |  |  |  | (B) | (U) | 0.314 | 308 |  |  |  | CCCCCCCCCCCCCCCCOc1cc(COC(=O)CCCN2CCN(CCO)CC2)cc(OCCCCCCCCCCCCCCC)c1 [IAJD 150, 3-(Hexadecyloxy)-5-(pentadecyloxy)benzyl 4-(4-(2-hydroxyethyl)piperazin-1-yl)butanoate] | spleen (strong) | liver (weak), | 3.47 × 10^7 p/s | Lung (weak), |  |
| 0.238 | 232 | 0.238 | 232 | 4.52 |  |  |  | (U) |  |  |  | (U) | 0.232 | 222 | CCCCCCCCCCCCCCCCCCOc1cc(COC(=O)CCCN2CCN(C)CC2)cc(OCCCCCCCCCCCCCCC)c1 [IAJD 153, 3-(Octadecyloxy)-5-(pentadecyloxy)benzyl 4-(4-methylpiperazin-1-yl)butanoate] | spleen (strong) | liver (strong), | 7.33 × 10^7 p/s | Lung (weak), | 7.33 × 10^7 p/s |
| 0.407 | 429 | 0.407 | 429 | 4.47 |  |  |  | (B) |  |  |  | (B) | 0.471 | 372 | CCCCCCCCCCCCCCCCCCOc1cc(COC(=O)CCCN2CCN(CCO)CC2)cc(OCCCCCCCCCCCCCCC)c1 [IAJD 154, 3-(Octadecyloxy)-5-(pentadecyloxy)benzyl 4-(4-(2-hydroxyethyl)piperazin-1-yl)butanoate] | spleen (strong) | liver (weak), | 2.39 × 10^7 p/s | Lung (weak), | 2.39 × 10^7 p/s |
